According to patent US8927533B2, “Thio derivatives bearing lactams as potent HDAC inhibitors and their uses as medicaments” (SIGMA-TAU Industrie Farmaceutiche Riunite S.p.A., priority 2011, dated 2015):

Experiments:
Assay type in all cases: biochemical
[1] = target: T1, HDAC11 (Homo sapiens, UniProt Q96DB2); test: HDAC enzymatic assay, HDAC11; conditions: fluorogenic tetrapeptide RHKKAc substrate 10 μM; read-out: HDAC isoforms IC50 (nM), 11
T1 sequence (Q96DB2 1-347): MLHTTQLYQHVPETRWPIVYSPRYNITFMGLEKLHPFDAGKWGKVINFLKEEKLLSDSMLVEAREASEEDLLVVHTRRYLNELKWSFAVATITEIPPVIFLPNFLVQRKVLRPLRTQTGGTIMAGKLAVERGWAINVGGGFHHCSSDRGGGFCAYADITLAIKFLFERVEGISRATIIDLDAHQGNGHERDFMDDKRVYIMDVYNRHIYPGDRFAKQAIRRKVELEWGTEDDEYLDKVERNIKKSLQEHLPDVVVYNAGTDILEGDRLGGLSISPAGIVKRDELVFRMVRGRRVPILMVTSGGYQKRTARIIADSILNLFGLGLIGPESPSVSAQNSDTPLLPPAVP
Experimental: (§1) Each compound was dissolved in DMSO, and progressively diluted solutions were used for testing. […] Upon its deacetylation, the fluorophore was released given rise to fluorescence emission which was detected by a fluorimeter, and the IC50 values of the compounds were determined by analyzing dose-response inhibition curves.

[2] = target: HDAC5 (Homo sapiens, UniProt Q9UQL6); test: HDAC enzymatic assay, HDAC5; conditions: fluorogenic tetrapeptide RHKKAc substrate 10 μM; read-out: HDAC isoforms IC50 (nM), 5
Experimental: as §1

[3] = target: T2, HDAC3 (complex of full length human HDAC3 with human NCOR2 amino acids 395-489) (Homo sapiens, UniProt O15379); test: HDAC enzymatic assay, HDAC3; conditions: fluorogenic tetrapeptide RHKKAc substrate 10 μM; read-out: HDAC isoforms IC50 (nM), 3
T2 construct: complex of full length human HDAC3 with a C-terminal His-tag; His-tag (C); host or cells: baculovirus expression system
Experimental: as §1

[4] = target: T3, HDAC10 (Homo sapiens, UniProt Q969S8); test: HDAC enzymatic assay, HDAC10; conditions: fluorogenic tetrapeptide RHKKAc substrate 10 μM; read-out: HDAC isoforms IC50 (nM), 10
T3 sequence (Q969S8 1-669): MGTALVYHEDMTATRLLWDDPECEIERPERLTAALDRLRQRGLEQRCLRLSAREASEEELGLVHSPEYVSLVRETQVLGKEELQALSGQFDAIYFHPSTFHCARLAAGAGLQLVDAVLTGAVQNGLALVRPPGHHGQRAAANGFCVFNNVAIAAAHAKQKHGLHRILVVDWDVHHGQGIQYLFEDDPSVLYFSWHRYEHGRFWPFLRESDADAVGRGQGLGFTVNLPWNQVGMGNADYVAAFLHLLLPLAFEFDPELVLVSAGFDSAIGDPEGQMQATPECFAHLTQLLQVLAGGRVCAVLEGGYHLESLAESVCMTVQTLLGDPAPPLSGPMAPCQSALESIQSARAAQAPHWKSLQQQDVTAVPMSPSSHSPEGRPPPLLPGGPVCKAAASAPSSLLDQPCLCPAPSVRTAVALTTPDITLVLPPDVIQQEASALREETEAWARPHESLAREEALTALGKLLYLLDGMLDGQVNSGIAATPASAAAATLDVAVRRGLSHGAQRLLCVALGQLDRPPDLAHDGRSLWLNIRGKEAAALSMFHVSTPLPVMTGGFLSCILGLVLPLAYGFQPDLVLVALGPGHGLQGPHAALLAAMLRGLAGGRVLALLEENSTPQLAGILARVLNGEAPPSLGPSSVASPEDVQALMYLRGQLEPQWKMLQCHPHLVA
Experimental: as §1

[5] = target: T4, HDAC6 (Homo sapiens, UniProt Q9UBN7); test: HDAC enzymatic assay, HDAC6; conditions: fluorogenic tetrapeptide RHKKAc substrate 10 μM; read-out: HDAC isoforms IC50 (nM), 6
T4 sequence (Q9UBN7 1-1215): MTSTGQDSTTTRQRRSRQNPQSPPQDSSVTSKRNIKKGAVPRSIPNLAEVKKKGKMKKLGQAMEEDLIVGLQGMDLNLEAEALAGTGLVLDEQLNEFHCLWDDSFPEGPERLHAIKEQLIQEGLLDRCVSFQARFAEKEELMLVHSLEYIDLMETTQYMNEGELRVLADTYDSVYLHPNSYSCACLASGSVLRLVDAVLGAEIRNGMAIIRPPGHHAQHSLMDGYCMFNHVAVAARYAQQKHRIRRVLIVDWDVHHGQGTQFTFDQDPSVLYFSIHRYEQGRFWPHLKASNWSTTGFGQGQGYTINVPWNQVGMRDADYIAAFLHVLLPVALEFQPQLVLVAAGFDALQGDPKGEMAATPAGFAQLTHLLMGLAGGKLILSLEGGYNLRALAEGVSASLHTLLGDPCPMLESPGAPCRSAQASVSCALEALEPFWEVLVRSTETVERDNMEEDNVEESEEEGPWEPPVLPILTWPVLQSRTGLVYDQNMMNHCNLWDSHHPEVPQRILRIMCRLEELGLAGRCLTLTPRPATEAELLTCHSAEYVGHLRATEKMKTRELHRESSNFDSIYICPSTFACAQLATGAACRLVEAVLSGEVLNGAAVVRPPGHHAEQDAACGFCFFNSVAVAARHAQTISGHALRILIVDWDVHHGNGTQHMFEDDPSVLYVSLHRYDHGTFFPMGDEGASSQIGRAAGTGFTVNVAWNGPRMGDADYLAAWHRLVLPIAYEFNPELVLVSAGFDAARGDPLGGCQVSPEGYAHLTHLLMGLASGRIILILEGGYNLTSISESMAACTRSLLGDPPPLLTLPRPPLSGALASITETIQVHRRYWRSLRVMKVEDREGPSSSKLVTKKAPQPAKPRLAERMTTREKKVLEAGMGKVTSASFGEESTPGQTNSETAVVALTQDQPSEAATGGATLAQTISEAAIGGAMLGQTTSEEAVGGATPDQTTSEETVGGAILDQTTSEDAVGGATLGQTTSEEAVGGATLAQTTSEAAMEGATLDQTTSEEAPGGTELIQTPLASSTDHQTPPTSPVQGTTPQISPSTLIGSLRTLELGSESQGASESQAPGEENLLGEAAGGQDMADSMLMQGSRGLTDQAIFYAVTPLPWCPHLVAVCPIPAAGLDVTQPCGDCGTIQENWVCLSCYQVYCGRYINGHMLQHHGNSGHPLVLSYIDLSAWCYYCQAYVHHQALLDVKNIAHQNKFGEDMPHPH
Experimental: as §1

Sequence of HDAC5 (Q9UQL6 whole entry, canonical isoform): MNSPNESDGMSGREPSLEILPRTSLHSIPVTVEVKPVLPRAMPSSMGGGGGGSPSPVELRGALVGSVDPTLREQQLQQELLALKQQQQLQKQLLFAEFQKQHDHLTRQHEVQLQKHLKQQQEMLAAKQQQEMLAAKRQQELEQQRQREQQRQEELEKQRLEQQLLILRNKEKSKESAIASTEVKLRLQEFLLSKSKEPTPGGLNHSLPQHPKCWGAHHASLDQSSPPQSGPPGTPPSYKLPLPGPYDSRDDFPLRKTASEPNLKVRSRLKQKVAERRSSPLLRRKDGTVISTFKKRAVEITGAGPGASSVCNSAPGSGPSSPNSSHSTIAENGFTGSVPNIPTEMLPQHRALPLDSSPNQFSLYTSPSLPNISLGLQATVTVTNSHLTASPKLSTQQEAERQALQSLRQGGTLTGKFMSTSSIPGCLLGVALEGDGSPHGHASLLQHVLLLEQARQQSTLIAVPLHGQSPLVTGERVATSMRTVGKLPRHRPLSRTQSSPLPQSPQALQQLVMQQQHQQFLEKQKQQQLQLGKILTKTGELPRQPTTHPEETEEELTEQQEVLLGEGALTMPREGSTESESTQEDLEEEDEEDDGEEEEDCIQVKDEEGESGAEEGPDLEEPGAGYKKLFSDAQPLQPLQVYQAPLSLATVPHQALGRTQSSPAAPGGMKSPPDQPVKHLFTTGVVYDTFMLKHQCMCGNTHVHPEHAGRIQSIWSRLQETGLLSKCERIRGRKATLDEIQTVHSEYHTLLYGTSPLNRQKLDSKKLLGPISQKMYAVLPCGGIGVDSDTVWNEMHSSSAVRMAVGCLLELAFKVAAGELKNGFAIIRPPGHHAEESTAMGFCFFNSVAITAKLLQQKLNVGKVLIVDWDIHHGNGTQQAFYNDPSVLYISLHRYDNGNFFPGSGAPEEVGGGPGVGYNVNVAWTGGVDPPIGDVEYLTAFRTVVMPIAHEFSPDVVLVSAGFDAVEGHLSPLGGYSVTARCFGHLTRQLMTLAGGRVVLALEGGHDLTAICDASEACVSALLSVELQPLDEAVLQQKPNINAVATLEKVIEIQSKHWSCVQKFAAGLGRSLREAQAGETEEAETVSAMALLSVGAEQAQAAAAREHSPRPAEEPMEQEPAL
T2 sequence (O15379 whole entry, the tested form may be a part, canonical isoform): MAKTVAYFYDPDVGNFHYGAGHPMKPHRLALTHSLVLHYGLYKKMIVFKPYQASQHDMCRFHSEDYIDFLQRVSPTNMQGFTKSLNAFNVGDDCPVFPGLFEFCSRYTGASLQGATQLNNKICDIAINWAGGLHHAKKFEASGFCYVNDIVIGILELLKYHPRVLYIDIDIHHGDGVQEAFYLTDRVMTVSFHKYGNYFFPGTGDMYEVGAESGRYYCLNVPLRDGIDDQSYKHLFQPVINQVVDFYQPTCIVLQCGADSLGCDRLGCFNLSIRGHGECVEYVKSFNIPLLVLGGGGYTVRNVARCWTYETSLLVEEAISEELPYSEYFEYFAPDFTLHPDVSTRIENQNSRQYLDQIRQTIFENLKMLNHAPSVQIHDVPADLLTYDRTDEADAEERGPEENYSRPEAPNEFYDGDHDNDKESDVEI
T2 sequence (Q9Y618 395-489 partner limits assumed): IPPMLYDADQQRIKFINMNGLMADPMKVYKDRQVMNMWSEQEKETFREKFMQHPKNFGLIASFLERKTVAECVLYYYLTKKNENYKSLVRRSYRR

Row | Compound | IC50 [1] | IC50 [2] | IC50 [3] | IC50 [4] | IC50 [5]
1 | O=C1CCC[C@@H](C(=O)N[C@@H](CCCCCS)C(=O)NCc2ccc(C(F)(F)F)cc2)N1 [Example 26, (S)-6-Oxo-piperidine-2-carboxylic acid [(S)-6-mercapto-1-(4-trifluoromethyl-benzylcarbamoyl)-hexyl]-amide] | 100 to 500 nM | 100 to 500 nM | 100 to 500 nM | 100 to 500 nM | 100 to 500 nM
2 | O=C1CCC[C@@H](C(=O)N[C@@H](CCCCCS)C(=O)Nc2ccccc2)N1 [Example 23, (S)-6-Oxo-piperidine-2-carboxylic acid ((S)-6-mercapto-1-phenylcarbamoyl-hexyl)amide] | < 50 nM | < 50 nM | < 50 nM | < 50 nM | < 50 nM
3 | O=C1NCCC[C@@H]1C(=O)N[C@@H](CCCCCS)C(=O)Nc1ccccc1 [Example 36, (S)-2-Oxo-piperidine-3-carboxylic acid ((S)-6-mercapto-1-phenylcarbamoyl-hexyl)amide] | < 50 nM | < 50 nM | < 50 nM | < 50 nM | < 50 nM
4 | O=C1CCC[C@@H](C(=O)N[C@@H](CCCCCS)C(=O)N2CCc3ccccc3C2)N1 [Example 32, (S)-6-Oxo-piperidine-2-carboxylic acid [(S)-1-(3,4-dihydro-1H-isoquinoline-2-carbonyl)-6-mercapto-hexyl]-amide] | 100 to 500 nM | 100 to 500 nM | 100 to 500 nM | 100 to 500 nM | 100 to 500 nM
5 | Cc1cccc(NC(=O)[C@H](CCCCCS)NC(=O)[C@@H]2CCCC(=O)N2)c1 [Example 38, (S)-6-Oxo-piperidine-2-carboxylic acid ((S)-6-mercapto-1-m-tolylcarbamoyl-hexyl)amide] | < 50 nM | < 50 nM | < 50 nM | < 50 nM | < 50 nM
6 | O=C1NCCC[C@H]1C(=O)N[C@@H](CCCCCS)C(=O)Nc1ccccc1 [Example 35, (R)-2-Oxo-piperidine-3-carboxylic acid ((S)-6-mercapto-1-phenylcarbamoyl-hexyl)amide] | < 50 nM | < 50 nM | < 50 nM | < 50 nM | < 50 nM
7 | O=C1CCC[C@@H](C(=O)N[C@@H](CCCCCS)C(=O)NC2CCCC2)N1 [Example 24, (S)-6-Oxo-piperidine-2-carboxylic acid ((S)-1-cyclopentylcarbamoyl-6-mercapto-hexyl)amide] | 50 to 100 nM | 100 to 500 nM | 50 to 100 nM | 100 to 500 nM | < 50 nM
8 | O=C1NC[C@H](c2ccccc2)[C@@H]1C(=O)N[C@@H](CCCCCS)C(=O)Nc1ccccc1 [Example 28, (3S,4S)-2-Oxo-4-phenyl-pyrrolidine-3-carboxylic acid ((S)-6-mercapto-1-phenylcarbamoyl-hexyl)-amide] | < 50 nM | 50 to 100 nM | < 50 nM | < 50 nM | < 50 nM
9 | O=C1NC[C@@H](c2ccccc2)[C@H]1C(=O)N[C@@H](CCCCCS)C(=O)Nc1ccccc1 [Example 29, (3R,4R)-2-Oxo-4-phenyl-pyrrolidine-3-carboxylic acid ((S)-6-mercapto-1-phenylcarbamoyl-hexyl)-amide] | < 50 nM | 100 to 500 nM | 50 to 100 nM | < 50 nM | < 50 nM
10 | O=C1CCC[C@H](C(=O)N[C@@H](CCCCCS)C(=O)Nc2ccccc2)N1 [Example 37, (R)-6-Oxo-piperidine-2-carboxylic acid ((S)-6-mercapto-1-phenylcarbamoyl-hexyl)amide] | < 50 nM | < 50 nM | < 50 nM | < 50 nM | < 50 nM
11 | O=C1CCC[C@@H](C(=O)N[C@@H](CCCCCS)C(=O)NCc2cccc(OCc3ccccc3)c2)N1 [Example 25, (S)-6-Oxo-piperidine-2-carboxylic acid [(S)-1-(3-benzyloxy-benzylcarbamoyl)-6-mercapto-hexyl]-amide] | 100 to 500 nM | 100 to 500 nM | 100 to 500 nM | 100 to 500 nM | 50 to 100 nM
12 | O=C1C[C@@H](C(=O)N[C@@H](CCCCCS)C(=O)Nc2ccccc2)N1 [Example 27, (S)-4-Oxo-azetidine-2-carboxylic acid ((S)-6-mercapto-1-phenylcarbamoyl-hexyl)amide] | < 50 nM | < 50 nM | < 50 nM | < 50 nM | < 50 nM
13 | Cc1cccc(CCNC(=O)[C@H](CCCCCS)NC(=O)[C@@H]2CCCC(=O)N2)c1 [Example 34, (S)-6-Oxo-piperidine-2-carboxylic acid [(S)-6-mercapto-1-(2-m-tolyl-ethylcarbamoyl)hexyl]-amide] | 50 to 100 nM | 100 to 500 nM | 100 to 500 nM | 50 to 100 nM | < 50 nM
14 | CN1C(=O)CCC[C@H]1C(=O)N[C@@H](CCCCCS)C(=O)Nc1ccccc1 [Example 40, (S)-1-Methyl-6-oxo-piperidine-2-carboxylic acid ((S)-6-mercapto-1-phenylcarbamoyl-hexyl)-amide] | < 50 nM | < 50 nM | < 50 nM | < 50 nM | < 50 nM
15 | Cc1ccc(NC(=O)[C@H](CCCCCS)NC(=O)[C@@H]2CCCC(=O)N2)cc1 [Example 39, (S)-6-Oxo-piperidine-2-carboxylic acid ((S)-6-mercapto-1-p-tolylcarbamoyl-hexyl)amide] | < 50 nM | < 50 nM | < 50 nM | < 50 nM | < 50 nM
16 | O=C1NC[C@H](c2ccccc2)[C@H]1C(=O)N[C@@H](CCCCCS)C(=O)Nc1ccccc1 [Example 30, (3R,4S)-2-Oxo-4-phenyl-pyrrolidine-3-carboxylic acid ((S)-6-mercapto-1-phenylcarbamoyl-hexyl)-amide] | < 50 nM | 100 to 500 nM | 50 to 100 nM | < 50 nM | 100 to 500 nM
